According to ChEMBL document CHEMBL3217710, “Antimalarial peroxides: advances in drug discovery and design” (Medchemcomm, 2012):
Values belong to the molecule of their own block, whether it stands above or below them.

What was measured:
Plasmodium falciparum [1] = experiment: Antimalarial activity against chloroquine-resistant Plasmodium falciparum K1; assay type: functional, organism-based
[2] = Half life in simulated stomach acid; assay type: ADME
Plasmodium berghei [3] = experiment: Antimalarial activity against chloroquine-sensitive Plasmodium berghei infected in mouse; assay type: functional
Plasmodium yoelii = experiment: Antimalarial activity against chloroquine-resistant Plasmodium yoelii infected in po dosed mouse; assay type: functional
Plasmodium berghei [4] = experiment: Antimalarial activity against Plasmodium berghei infected in sc dosed mouse; assay type: functional, organism-based
Plasmodium falciparum [5] = experiment: Antimalarial activity against chloroquine-resistant Plasmodium falciparum; assay type: functional, organism-based
Plasmodium falciparum [6] = experiment: Antimalarial activity against chloroquine-sensitive Plasmodium falciparum; assay type: functional, organism-based
Plasmodium vinckei [7] = experiment: Antimalarial activity against Plasmodium vinckei infected in ip dosed mouse assessed as decrease in parasitemia by peters four day suppressive test; assay type: functional; conditions: 96 h
Plasmodium vinckei [8] = experiment: Antimalarial activity against Plasmodium vinckei infected in po dosed mouse assessed as decrease in parasitemia by peters four day suppressive test; assay type: functional; conditions: 96 h
Plasmodium falciparum [9] = experiment: Antimalarial activity against chloroquine-sensitive Plasmodium falciparum FCR-3; assay type: functional; conditions: FCR-3/Gambia
Plasmodium falciparum [10] = experiment: Antimalarial activity against Plasmodium falciparum; assay type: functional, organism-based
[11] = Half life of the compound in HCl solution at pH 1; assay type: physicochemical
[12] = Oral bioavailability in rat at 50 mg/kg; assay type: ADME, organism-based; conditions: in vivo
[13] = Octanol-water partition coefficient, log P of the compound at pH 7.4; assay type: physicochemical
Plasmodium falciparum [14] = experiment: Antimalarial activity against chloroquine-sensitive Plasmodium falciparum at 1.4 nM relative to control; assay type: functional
Plasmodium falciparum [15] = experiment: Antimalarial activity against chloroquine-sensitive Plasmodium falciparum at 5.2 nM relative to control; assay type: functional
[16] = Therapeutic index, ratio of compound activity in mouse assessed as body weight gain to compound activity against Plasmodium berghei infected in mouse; assay type: organism-based; conditions: in vivo, read-out: TI
Plasmodium falciparum [17] = experiment: Antimalarial activity against chloroquine-sensitive Plasmodium falciparum at 4.6 nM relative to control; assay type: functional
Plasmodium falciparum [18] = experiment: Antimalarial activity against multi-drug resistant Plasmodium falciparum; assay type: functional, organism-based
[19] = Half life in human infected with Plasmodium; conditions: in vivo
Plasmodium falciparum [20] = experiment: Antimalarial activity against chloroquine-sensitive Plasmodium falciparum NF54; assay type: functional, organism-based
[21] = Drug degradation at 40 degC after 1 month; assay type: physicochemical; conditions: read-out: Drug degradation
[22] = Drug degradation at 40 degC after 3 months; assay type: physicochemical; conditions: read-out: Drug degradation

Structure (SMILES): Fc1ccc(C2=C[C@H]3OC4(CCCC4)OO[C@@]3(c3ccc(F)cc3)C2)cc1
- IC50 (Plasmodium falciparum [1]): < 5 nM

Structure (SMILES): C[C@H]1[C@@H](CCc2ccc(C(=O)O)cc2)O[C@@H]2O[C@]3(C)CC[C@H]4[C@H](C)CC[C@@H]1[C@@]24OO3
- half-life [2]: 0.546 days

Structure (SMILES): C[C@H]1[C@@H](Oc2ccc(C(F)(F)F)cc2)O[C@@H]2O[C@]3(C)CC[C@H]4[C@H](C)CC[C@@H]1[C@@]24OO3
- ED50 (Plasmodium berghei [3]): 2.1 mg/kg

Structure (SMILES): C[C@H]1[C@@H](CCN2CCN(c3cccc(C(F)(F)F)c3)CC2)O[C@@H]2O[C@]3(C)CC[C@H]4[C@H](C)CC[C@@H]1[C@@]24OO3
- ED50 (Plasmodium yoelii): 3.1 mg/kg

Structure (SMILES): C[C@H]1[C@@H](CCN2CCN(c3ccc(F)cc3)CC2)O[C@@H]2O[C@]3(C)CC[C@H]4[C@H](C)CC[C@@H]1[C@@]24OO3
- ED50 (Plasmodium yoelii): < 10 mg/kg

Structure (SMILES): C[C@H]1[C@@H](CCN2CCN(c3ccccc3)CC2)O[C@@H]2O[C@]3(C)CC[C@H]4[C@H](C)CC[C@@H]1[C@@]24OO3
- ED50 (Plasmodium yoelii): < 10 mg/kg

Structure (SMILES): C[C@H]1[C@@H](CCN2CCN(c3ccc([N+](=O)[O-])cc3)CC2)O[C@@H]2O[C@]3(C)CC[C@H]4[C@H](C)CC[C@@H]1[C@@]24OO3
- ED50 (Plasmodium yoelii): < 10 mg/kg

Structure (SMILES): COC1(c2ccc(S(C)(=O)=O)cc2)C=CC2(CCCCCC2)OO1 (stereo not drawn)
- IC50 (Plasmodium berghei [4]): 31 nM

Structure (SMILES): CC(C)C1=C[C@H]2OC3(CCC(NCCNc4ccnc5cc(Cl)ccc45)CC3)OO[C@@]2(C)CC1.O=C(O)CC(O)(CC(=O)O)C(=O)O (stereo partly drawn)
- IC50 (Plasmodium falciparum [5]): 5 nM
- IC50 (Plasmodium falciparum [6]): 4 nM
- ED50 (Plasmodium vinckei [7]): 5 mg/kg
- ED50 (Plasmodium vinckei [8]): 18 mg/kg

Structure (SMILES): C1CCCCCC2(CCCCC1)OOCCCOO2
- EC50 (Plasmodium falciparum [9]): 2.5 nM

Structure (SMILES): C[C@@H]1CC[C@H]2[C@@H](C)C(Oc3ccccc3)O[C@@H]3O[C@@]4(C)CC[C@@H]1[C@]32OO4 (stereo partly drawn)
- IC50 (Plasmodium falciparum [5]): 5.3 nM
- IC50 (Plasmodium falciparum [6]): 3.9 nM

Structure (SMILES): C[C@@H]1CC[C@H]2[C@@H](C)[C@](O)(C(F)(F)F)O[C@@H]3O[C@@]4(C)CC[C@@H]1[C@]32OO4
- IC50 (Plasmodium falciparum [10]): 9.4 nM
- half-life [11]: 31.7 days
- bioavailability [12]: 28%

Structure (SMILES): CO[C@@]1(C(F)(F)F)O[C@@H]2O[C@@]3(C)CC[C@H]4[C@H](C)CC[C@@H]([C@H]1C)[C@@]24OO3
- IC50 (Plasmodium falciparum [10]): 0.8 nM
- half-life [11]: 27.5 days

Structure (SMILES): CCO[C@@]1(C(F)(F)F)O[C@@H]2O[C@@]3(C)CC[C@H]4[C@H](C)CC[C@@H]([C@H]1C)[C@@]24OO3
- IC50 (Plasmodium falciparum [10]): 3.3 nM
- half-life [11]: 20.8 days

Structure (SMILES): C[C@@H]1CC[C@H]2[C@@H](C)[C@](OC(=O)CCC(=O)O)(C(F)(F)F)O[C@@H]3O[C@@]4(C)CC[C@@H]1[C@]32OO4
- IC50 (Plasmodium falciparum [10]): 4.1 nM

Structure (SMILES): C[C@H]1[C@H](N2CCOCC2)O[C@@H]2O[C@@]3(C)CC[C@H]4[C@H](C)CC[C@@H]1[C@@]24OO3
- logD [13]: 3.05

Structure (SMILES): C[C@H]1[C@H](N2CC[S+]([O-])CC2)O[C@@H]2O[C@@]3(C)CC[C@H]4[C@H](C)CC[C@@H]1[C@@]24OO3
- logD [13]: 2.63

Structure (SMILES): C[C@H]1[C@H](c2ccco2)O[C@@H]2O[C@@]3(C)CC[C@H]4[C@H](C)CC[C@@H]1[C@@]24OO3
- inhibition at 0.0014 µM (Plasmodium falciparum [14]): 50%

Structure (SMILES): Cc1ccc([C@@H]2O[C@@H]3O[C@@]4(C)CC[C@H]5[C@H](C)CC[C@@H]([C@H]2C)[C@@]35OO4)o1
- inhibition at 0.0052 µM (Plasmodium falciparum [15]): 50%

Structure (SMILES): C[C@H]1[C@@H](CC(C[C@H]2O[C@@H]3O[C@@]4(C)CC[C@H]5[C@H](C)CC[C@@H]([C@H]2C)[C@@]35OO4)C(=O)O)O[C@@H]2O[C@@]3(C)CC[C@H]4[C@H](C)CC[C@@H]1[C@@]24OO3 (stereo partly drawn)
- selectivity ratio [16]: 167

Structure (SMILES): CC(=O)OC1(C)CCC2CC1OO[C@]2(/C=C\c1ccc(F)cc1)c1ccccc1 (stereo partly drawn)
- IC50 (Plasmodium falciparum [1]): 29 nM

Structure (SMILES): CC(=O)OC1(C)CCC2CC1OO[C@]2(/C=C\c1ccc(Cl)cc1)c1ccccc1 (stereo partly drawn)
- IC50 (Plasmodium falciparum [1]): 23 nM

Structure (SMILES): CC1CCC2CC1OO[C@]2(C)/C=C/[C@H](O)C(C)(C)O (stereo partly drawn)
- IC50 (Plasmodium falciparum [1]): 115 nM

Structure (SMILES): CC1CCC2CC1OO[C@]2(C)/C=C/[C@@H](O)C(C)(C)O (stereo partly drawn)
- IC50 (Plasmodium falciparum [1]): 56 nM

Structure (SMILES): Cc1ccc(C2=C[C@H]3OC4(CCCC4)OO[C@@]3(c3ccc(C)cc3)C2)cc1
- IC50 (Plasmodium falciparum [1]): < 5 nM

Structure (SMILES): Fc1ccc(C2=C[C@H]3OC4(CCOCC4)OO[C@@]3(c3ccc(F)cc3)C2)cc1
- IC50 (Plasmodium falciparum [1]): < 5 nM

Structure (SMILES): C=C(C)[C@@H]1OO[C@]2(O[C@H]1C1CC1)[C@H]1CC3C[C@@H](C1)C[C@H]2C3
- IC50 (Plasmodium falciparum [1]): < 5 nM

Structure (SMILES): C=C(C)[C@@H]1OO[C@]2(O[C@H]1CCC)[C@H]1CC3C[C@@H](C1)C[C@H]2C3
- IC50 (Plasmodium falciparum [1]): < 5 nM

Structure (SMILES): OCCCCCCC1COOC2(CCCCCCCCCCC2)OOC1
- EC50 (Plasmodium falciparum [9]): 2.3 nM

Structure (SMILES): Clc1ccc2c(NCCNC3CCC4(CC3)OOC3(c5ccccc5)CC(c5ccccc5)=CC3O4)ccnc2c1 (stereo not drawn)
- IC50 (Plasmodium falciparum [5]): 20 nM
- IC50 (Plasmodium falciparum [6]): 7 nM

Structure (SMILES): CC1(C)COC2(CCC(NC3CCC(Nc4ccnc5cc(Cl)ccc45)CC3)CC2)OO1 (stereo not drawn)
- IC50 (Plasmodium falciparum [5]): 7 nM
- IC50 (Plasmodium falciparum [6]): 7 nM

Structure (SMILES): Cc1ccc(OC2O[C@@H]3O[C@@]4(C)CC[C@H]5[C@H](C)CC[C@@H]([C@H]2C)[C@@]35OO4)cc1 (stereo partly drawn)
- IC50 (Plasmodium falciparum [5]): 5.3 nM
- IC50 (Plasmodium falciparum [6]): 3.9 nM

Structure (SMILES): C[C@@H]1CC[C@H]2[C@@H](C)C(Oc3ccc(C(F)(F)F)cc3)O[C@@H]3O[C@@]4(C)CC[C@@H]1[C@]32OO4 (stereo partly drawn)
- IC50 (Plasmodium falciparum [5]): 5.3 nM
- IC50 (Plasmodium falciparum [6]): 3.9 nM

Structure (SMILES): COc1ccc(OC2O[C@@H]3O[C@@]4(C)CC[C@H]5[C@H](C)CC[C@@H]([C@H]2C)[C@@]35OO4)cc1 (stereo partly drawn)
- IC50 (Plasmodium falciparum [5]): 5.3 nM
- IC50 (Plasmodium falciparum [6]): 3.9 nM

Structure (SMILES): C[C@@H]1CC[C@H]2[C@@H](C)C(Oc3ccc(F)cc3)O[C@@H]3O[C@@]4(C)CC[C@@H]1[C@]32OO4 (stereo partly drawn)
- IC50 (Plasmodium falciparum [5]): 5.3 nM
- IC50 (Plasmodium falciparum [6]): 3.9 nM

Structure (SMILES): C[C@@H]1CC[C@H]2[C@@H](C)C(Oc3ccc(Cl)cc3)O[C@@H]3O[C@@]4(C)CC[C@@H]1[C@]32OO4 (stereo partly drawn)
- IC50 (Plasmodium falciparum [5]): 5.3 nM
- IC50 (Plasmodium falciparum [6]): 3.9 nM

Structure (SMILES): C[C@@H]1CC[C@H]2[C@@H](C)C(Oc3ccc(-c4cccc5ccccc45)cc3)O[C@@H]3O[C@@]4(C)CC[C@@H]1[C@]32OO4 (stereo partly drawn)
- IC50 (Plasmodium falciparum [5]): 5.3 nM
- IC50 (Plasmodium falciparum [6]): 3.9 nM

Structure (SMILES): C[C@H]1[C@H](c2cccn2C)O[C@@H]2O[C@@]3(C)CC[C@H]4[C@H](C)CC[C@@H]1[C@@]24OO3
- inhibition at 0.0046 µM (Plasmodium falciparum [17]): 50%

Structure (SMILES): C1CCCCCC2(CCCCC1)OOCCCCCOO2
- EC50 (Plasmodium falciparum [9]): 1 nM

Structure (SMILES): CO[C@H]1O[C@@H]2O[C@@]3(C)CC[C@H]4[C@H](C)CC[C@@H]([C@H]1C)[C@@]24OO3 [ARTEMETHER]
- logD [13]: 4
- ED50 (Plasmodium yoelii): 6 mg/kg

Structure (SMILES): C[C@H]1[C@H](N2CCS(=O)(=O)CC2)O[C@@H]2O[C@@]3(C)CC[C@H]4[C@H](C)CC[C@@H]1[C@@]24OO3 [ARTEMIFONE]
- logD [13]: 2.49
- ED90 (Plasmodium berghei [4]; sc): 1.5 mg/kg
- EC50 (Plasmodium falciparum [18]): 0.14 nM

Structure (SMILES): C[C@H]1[C@H](N2CCSCC2)O[C@@H]2O[C@@]3(C)CC[C@H]4[C@H](C)CC[C@@H]1[C@@]24OO3 [ARTEMISIDE]
- logD [13]: 4.97

Structure (SMILES): C[C@@H]1CC[C@H]2[C@@H](C)C(=O)O[C@@H]3O[C@@]4(C)CC[C@@H]1[C@]32OO4 [ARTEMISININ]
- half-life [19]: 0.0833 days
- IC50 (Plasmodium falciparum [20]): 8.9 nM
- IC50 (Plasmodium falciparum [1]): 2.8 nM

- degraded at 730.5 h [21]: 2%
- degraded at 2191.5 h [22]: 2.9%
Structure (SMILES): C[C@H]1[C@@H](O)O[C@@H]2O[C@@]3(C)CC[C@H]4[C@H](C)CC[C@@H]1[C@@]24OO3 [ARTENIMOL]

Structure (SMILES): C[C@H]1[C@H](OC(=O)CCC(=O)O)O[C@@H]2O[C@@]3(C)CC[C@H]4[C@H](C)CC[C@@H]1[C@@]24OO3 [SODIUM ARESUNATE]
- EC50 (Plasmodium falciparum [18]): 0.73 nM

Structure (SMILES): C[C@H]1[C@@H](OCc2ccc(C(=O)[O-])cc2)O[C@@H]2O[C@]3(C)CC[C@H]4[C@H](C)CC[C@@H]1[C@@]24OO3.[Na+] [SODIUMARTELINATE]
- half-life [2]: 10.8 days
